How the values were obtained:
D(2) dopamine receptor [1] = target: T1, D(2) dopamine receptor (Homo sapiens, UniProt P14416); experiment: biochemical; type: cell-based, CHO
D(4) dopamine receptor [2] = target: T2, D(4) dopamine receptor (Homo sapiens, UniProt P21917); experiment: biochemical; type: cell-based, CHO
T2 sequence (P21917 whole entry): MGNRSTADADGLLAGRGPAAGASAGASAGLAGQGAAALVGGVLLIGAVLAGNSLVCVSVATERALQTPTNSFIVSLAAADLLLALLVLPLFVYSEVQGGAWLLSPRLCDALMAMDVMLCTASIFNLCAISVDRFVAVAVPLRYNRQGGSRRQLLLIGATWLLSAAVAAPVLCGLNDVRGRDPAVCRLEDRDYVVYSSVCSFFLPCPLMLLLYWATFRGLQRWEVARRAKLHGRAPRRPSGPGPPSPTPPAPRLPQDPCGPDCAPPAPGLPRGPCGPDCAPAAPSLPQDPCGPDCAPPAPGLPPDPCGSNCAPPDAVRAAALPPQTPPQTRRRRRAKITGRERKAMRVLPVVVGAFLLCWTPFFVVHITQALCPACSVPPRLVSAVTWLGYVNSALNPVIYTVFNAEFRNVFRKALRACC
Description: In vitro binding affinity to displace [3H]spiperone from the cloned human dopamine receptor D4 in CHO cells

D(3) dopamine receptor [3] = target: T3, D(3) dopamine receptor (Homo sapiens, UniProt P35462); experiment: biochemical
D(1A) dopamine receptor = D(1A) dopamine receptor (Bos taurus, UniProt Q95136); experiment: In vitro Binding affinity towards dopamine D1 receptor using bovine striatal membrane preparations and antagonist [3H]-SCH- 23390; design: species or system Striatum
D(2) dopamine receptor [4] = target: T1, D(2) dopamine receptor; experiment: biochemical; type: cell-based, CHO; remark: listed apart in the source
Description: In vitro binding affinity to displace [3H]-spiperone from the cloned human dopamine receptor D2 short in CHO cells

D(2) dopamine receptor [5] = target: T1, D(2) dopamine receptor; experiment: In vitro binding affinity to displace [3H]spiperone from the cloned human dopamine receptor D2 short in CHO cells; type: cell-based
D(3) dopamine receptor [6] = target: T3, D(3) dopamine receptor; experiment: In vitro binding affinity to displace [3H]spiperone from the cloned human dopamine receptor D3 in CHO cells; type: cell-based
D(4) dopamine receptor [7] = target: T2, D(4) dopamine receptor; experiment: In vitro binding affinity to displace [3H]-spiperone from the cloned human dopamine receptor D4 in CHO cells; type: cell-based
D(2) dopamine receptor [8] = target: T1, D(2) dopamine receptor; experiment: In vitro binding affinity to displace [3H]spiperone from the cloned human dopamine receptor D2 long in CHO cells; type: cell-based
[9] = target: T4, D(4) dopamine receptor (Homo sapiens) (UniProt P21917); experiment: In vitro functional assay measuring the [3H]thymidine uptake in growing CHO cells stably expressing the dopamine D4.2 receptor was performed; type: cell-based
T4 sequence (whole entry): T2 sequence (P21917 whole entry)

D(4) dopamine receptor [10] = target: T2, D(4) dopamine receptor; experiment: In vitro ability to displace [3H]spiperone from the cloned human dopamine D4 receptor expressed in CHO cells; type: cell-based
D(2) dopamine receptor [11] = target: T1, D(2) dopamine receptor; experiment: In vitro ability to displace [3H]spiperone from the cloned human dopamine D2 short receptor expressed in CHO cells; type: cell-based
D(3) dopamine receptor [12] = target: T3, D(3) dopamine receptor; experiment: In vitro ability to displace [3H]spiperone from cloned human dopamine D3 receptor expressed in CHO cells; type: cell-based
D(4) dopamine receptor [13] = target: T2, D(4) dopamine receptor; experiment: Effective concentration for [3H]thymidine uptake in growing CHO cells stably expressing the dopamine D4.2 receptor; type: cell-based
D(2) dopamine receptor [14] = target: T1, D(2) dopamine receptor; experiment: In vitro ability to displace [3H]spiperone from the cloned human dopamine D2 long receptor expressed in CHO cells; type: cell-based

T3 sequence (P35462 whole entry): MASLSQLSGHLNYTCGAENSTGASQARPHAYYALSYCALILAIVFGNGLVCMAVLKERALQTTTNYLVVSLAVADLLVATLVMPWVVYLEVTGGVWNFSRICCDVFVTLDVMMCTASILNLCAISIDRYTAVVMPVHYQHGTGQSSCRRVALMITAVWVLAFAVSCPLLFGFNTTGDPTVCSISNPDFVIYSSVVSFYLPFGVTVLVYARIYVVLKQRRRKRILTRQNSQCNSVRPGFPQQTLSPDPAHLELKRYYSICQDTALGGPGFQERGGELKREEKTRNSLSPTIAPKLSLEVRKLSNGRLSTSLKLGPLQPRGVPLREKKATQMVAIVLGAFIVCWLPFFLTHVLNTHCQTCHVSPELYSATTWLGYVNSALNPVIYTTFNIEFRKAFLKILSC
T1 sequence (P14416 whole entry): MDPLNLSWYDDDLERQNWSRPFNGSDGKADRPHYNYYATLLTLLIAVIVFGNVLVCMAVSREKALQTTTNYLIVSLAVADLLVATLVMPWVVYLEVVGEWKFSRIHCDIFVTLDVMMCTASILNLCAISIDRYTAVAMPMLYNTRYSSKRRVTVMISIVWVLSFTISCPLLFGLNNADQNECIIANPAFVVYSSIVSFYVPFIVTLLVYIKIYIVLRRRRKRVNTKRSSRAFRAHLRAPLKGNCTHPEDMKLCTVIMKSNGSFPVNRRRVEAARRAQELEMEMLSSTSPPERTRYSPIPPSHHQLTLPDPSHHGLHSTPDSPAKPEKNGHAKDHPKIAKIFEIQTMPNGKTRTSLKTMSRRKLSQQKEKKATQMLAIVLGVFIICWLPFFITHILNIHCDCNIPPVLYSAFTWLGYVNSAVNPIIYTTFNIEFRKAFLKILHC
Chain of D(1A) dopamine receptor (Q95136 whole entry): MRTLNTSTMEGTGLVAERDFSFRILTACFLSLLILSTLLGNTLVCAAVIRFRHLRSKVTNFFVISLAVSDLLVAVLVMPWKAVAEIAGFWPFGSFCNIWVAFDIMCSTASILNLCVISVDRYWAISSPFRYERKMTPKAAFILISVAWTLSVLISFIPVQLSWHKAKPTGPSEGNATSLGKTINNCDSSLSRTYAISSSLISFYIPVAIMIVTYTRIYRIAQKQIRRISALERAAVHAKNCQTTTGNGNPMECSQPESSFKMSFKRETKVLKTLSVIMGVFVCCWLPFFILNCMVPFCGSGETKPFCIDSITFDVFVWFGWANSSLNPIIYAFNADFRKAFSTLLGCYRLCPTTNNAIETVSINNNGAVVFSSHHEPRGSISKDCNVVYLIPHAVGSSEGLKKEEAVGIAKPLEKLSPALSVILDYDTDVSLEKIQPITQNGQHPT

| SMILES | Ki (D(2) dopamine receptor [1]) | Ki (D(4) dopamine receptor [2]) | Ki (D(3) dopamine receptor [3]) | Ki (D(1A) dopamine receptor) | Ki (D(2) dopamine receptor [4]) | also measured |
| --- | --- | --- | --- | --- | --- | --- |
| c1ccc(C2=NCC(N3CCN(c4ccccc4)CC3)CCN2)cc1 (single isomer, unassigned) | 19 µM | 4.4 µM | 3.3 µM | 23 µM | 14 µM |  |
| c1ccc(C2=NCC[C@@H](CN3CCN(c4ccccc4)CC3)N2)cc1 |  |  |  | 39 µM |  | Ki (D(2) dopamine receptor [5]): 30 µM; Ki (D(3) dopamine receptor [6]): 13 µM; Ki (D(4) dopamine receptor [7]): 0.31 µM; Ki (D(2) dopamine receptor [8]): 29 µM |
| c1ccc(C2=NCC[C@H](CN3CCN(c4ccccc4)CC3)N2)cc1 |  |  |  |  |  | Stimulation [9]: 83% |
| c1ccc(C2=NC[C@H](N3CCN(c4ccccc4)CC3)CCN2)cc1 | 10 µM | 0.12 µM | 12 µM | 23 µM | 4.2 µM |  |
| O=C1C[C@H](CN2CCN(c3ccccc3)CC2)N=C(c2ccccc2)N1 | 7.3 µM | 0.46 µM | 12 µM | 19 µM | 2.8 µM |  |
| c1ccc(C2=N[C@@H](CN3CCN(c4ccccc4)CC3)CCN2)cc1 |  |  |  | 29 µM |  | Ki (D(4) dopamine receptor [10]): 0.0015 µM; Ki (D(2) dopamine receptor [11]): 32 µM; Ki (D(3) dopamine receptor [12]): 13 µM; EC50 (D(4) dopamine receptor [13]): 0.05 µM; Ki (D(2) dopamine receptor [14]): 25 µM |
| COc1ccc(Br)cc1C1=NCC[C@H](CN2CCN(c3ccccc3)CC2)N1 | 44 µM | 1.6 µM | 7.4 µM | 15 µM | 43 µM |  |
| O=C1C[C@@H](CN2CCN(c3ccccc3)CC2)N=C(c2ccccc2)N1 | 18 µM | 3.7 µM | 20 µM | 8.9 µM | 6.4 µM |  |
| COc1ccc(Br)cc1C1=NCC[C@@H](CN2CCN(c3ccccc3)CC2)N1 | 16 µM | 3.5 µM | 1.9 µM | 9.1 µM | 14 µM |  |
